From patent US20220071932A1, “Compositions and Methods Against Stress-Induced Affective Disorders and Their Associated Symptoms” (The Trustees of Columbia University in the City of New York, priority 2019, published 2022)

What was measured:
[1] = system: NR2A subunit of the NMDAR; test: Western blotting of hippocampus after fear memory recall; format: in vivo, mice; details: one week prior to CFC, (R,S)-ketamine 30 mg/kg, FENM 20 mg/kg, vs saline
Method: Samples from mouse hippocampus and prefrontal cortex were dissected, snap frozen, and stored at −80° C. Brain tissue was homogenized in RIPA buffer with protease inhibitor (Thermo Fisher Scientific, Waltham, Mass.; Roche, Basel, Switzerland) using a motorized pestle mixer (Argos Technologies, Vernon Hills, Ill.) and spun at 1000 g×14 minutes to remove cell debris. Protein concentration was determined using a Bradford protein assay (Bio-Rad, Hercules, Calif.). 4× Laemmli buffer and β-mercaptoethanol (Bio-Rad, Hercules, Calif.) was added to the samples, which were then boiled at 90° C. for five minutes. 50 μg of each sample was separated by SDS/PAGE, and proteins were transferred onto PVDF membrane (GE Healthcare Life Sciences, Marlborough, Mass.). Membranes were then blocked in 1×TBS with 0.1% Tween-20 and 5% BSA for 1 hr at RT. Incubation with primary antibodies was performed at 4° C. overnight (rabbit anti-β-tubulin, 1:10000, Abc am, Cambridge, UK, ab6046; rabbit anti-NR2A, 1:1000, Alomone Labs, Jerusalem, Israel, AGC-002; rabbit anti-NR2B, 1:600, Alomone Labs, Jerusalem, Israel, AGC-003; mouse anti-GluR1, 1:1000, Millipore Sigma, Burlington, Mass., MAB2263) in 1×TBS with 0.1% Tween-20 and 5% BSA. […]

[2] = system: 129S6/SvEv mice; test: Open field (OF); format: in vivo
Method: The OF assay was administered as previously described (47). Briefly, motor activity was quantified in 4 Plexiglas open field boxes 43×43 cm^2 (MED Associates, Georgia, Vt.). Two sets of 16 pulse-modulated infrared photobeams on opposite walls 2.5-cm apart recorded x-y ambulatory movements. Activity chambers were computer interfaced for data sampling at 100-ms resolution. The computer defined grid lines that dividing center and surround regions, with the center square consisting of four lines 11 cm from the wall.

[3] = system: 129S6/SvEv mice; test: Forced swim test (FST); immobility time; format: in vivo; details: for p, Fisher's PLSD Saline vs. drug, FST Day 2 Immobility Time (sec): drug 1 week before stress
Method: The FST was administered as previously described (47). Briefly, mice were placed into clear plastic buckets 20 cm in diameter and 23 cm deep filled ⅔ of the way with 22° C. water. Mice were videotaped from the side for 6 min and were exposed to the swim test on 2 consecutive days Immobility time was scored by an experimenter blind to the experimental groups.

[4] = 1 week prior to CFC, (R,S)-ketamine 30 mg/kg, FENM 10, 20 or 30 mg/kg, vs saline
[5] = 5 min prior to CFC, (R,S)-ketamine 30 mg/kg, FENM 20 mg/kg, vs saline
[6] = Fisher's PLSD, drug 5 minutes after stress, (R,S)-ketamine 30 mg/kg vs. FENM 20 mg/kg
[7] = Fisher's PLSD, drug 5 minutes after stress, FENM 20 mg/kg, (R,S)-ketamine 30 mg/kg
[8] = Saline vs. FENM (20 mg/kg), cohort 5 min before re-exposure 1, FIG. 9L
[9] = non-stressed mice, FENM 20 mg/kg 1 hour before the start of the OF, vs saline
[10] = 10 mg/kg, drug 5 minutes after stress, FIG. 2F

NC12CC3CC(C1)CC(CCF)(C3)C2 [FENM, 1-amino-3-fluoroethyl-adamantane]
NR2A expression in the hippocampus [1]: comparable
distance travelled in the OF [2, 4]: did not alter
time spent in the center of the OF arena [2, 4]: did not alter
time spent in the center of the OF ([2]; 5 min after context re-exposure 1, FENM 20 mg/kg, vs saline): significantly increased
distance travelled in the OF [2, 5]: did not alter
time spent in the center of the OF arena [2, 5]: did not alter
Open Field, Distance Travelled Min 1 (cm), p (Fisher's LSD) ([2]; (R,S)-ketamine (30 mg/kg) vs. FENM (20 mg/kg), cohort 5 min before re-exposure 1, FIG. 9L): 0.0129
p, Distance Travelled (cm), OF, (R,S)-ketamine vs. FENM ([2]; Fisher's PLSD after RMANOVA, drug 5 minutes after stress, (R,S)-ketamine 30 mg/kg vs. FENM 20 mg/kg, FIG. 3L): 0.8632
p, Distance Travelled (cm), OF, Saline vs. drug ([2]; Fisher's PLSD after RMANOVA, drug 5 minutes after stress, FENM 20 mg/kg, (R,S)-ketamine 30 mg/kg, FIG. 3L): 0.7967
p, Distance Travelled Min 1 (cm), OF, (R,S)-ketamine vs. FENM [2, 6]: 0.5911
p, Distance Travelled Min 2 (cm), OF, (R,S)-ketamine vs. FENM [2, 6]: 0.8997
p, Distance Travelled Min 3 (cm), OF, (R,S)-ketamine vs. FENM [2, 6]: 0.5565
p, Distance Travelled Min 4 (cm), OF, (R,S)-ketamine vs. FENM [2, 6]: 0.7043
p, Distance Travelled Min 5 (cm), OF, (R,S)-ketamine vs. FENM [2, 6]: 0.5847
p, Distance Travelled Min 6 (cm), OF, (R,S)-ketamine vs. FENM [2, 6]: 0.7385
p, Distance Travelled Min 7 (cm), OF, (R,S)-ketamine vs. FENM [2, 6]: 0.4416
p, Distance Travelled Min 8 (cm), OF, (R,S)-ketamine vs. FENM [2, 6]: 0.7658
p, Distance Travelled Min 9 (cm), OF, (R,S)-ketamine vs. FENM [2, 6]: 0.8899
p, Distance Travelled Min 10 (cm), OF, (R,S)-ketamine vs. FENM [2, 6]: 0.9456
p, Distance Travelled Min 1 (cm), OF, Saline vs. drug [2, 7]: 0.0158
p, Distance Travelled Min 2 (cm), OF, Saline vs. drug [2, 7]: 0.0068
p, Distance Travelled Min 3 (cm), OF, Saline vs. drug [2, 7]: 0.4093
p, Distance Travelled Min 4 (cm), OF, Saline vs. drug [2, 7]: 0.4054
p, Distance Travelled Min 5 (cm), OF, Saline vs. drug [2, 7]: 0.1372
p, Distance Travelled Min 6 (cm), OF, Saline vs. drug [2, 7]: 0.5067
p, Distance Travelled Min 7 (cm), OF, Saline vs. drug [2, 7]: 0.4644
p, Distance Travelled Min 8 (cm), OF, Saline vs. drug [2, 7]: 0.0809
p, Distance Travelled Min 9 (cm), OF, Saline vs. drug [2, 7]: 0.0040
p, Distance Travelled Min 10 (cm), OF, Saline vs. drug [2, 7]: 0.5094
Open Field, Distance Travelled Min 1 (cm), p (Fisher's LSD) [2, 8]: 0.1253
Open Field, Distance Travelled Min 2 (cm), p (Fisher's LSD) [2, 8]: 0.0385
distance travelled in the OF [2, 9]: comparable
time in the center of the OF [2, 9]: comparable
time in the periphery of the OF [2, 9]: comparable
p, Distance Travelled (cm), OF, Saline vs. FENM ([2]; t-test, Baseline, anxiety cohort, FENM 20 mg/kg, FIG. 7C): 0.1878
p, Time in Center (sec), OF, Saline vs. FENM ([2]; t-test, Baseline, anxiety cohort, FENM 20 mg/kg, FIG. 7D): 0.1241
p, Time in Periphery (sec), OF, Saline vs. FENM ([2]; t-test, Baseline, anxiety cohort, FENM 20 mg/kg, FIG. 7E): 0.1225
p, Fisher's PLSD Saline vs. drug, FST Day 2 Immobility Time (sec) ([3]; 10 mg/kg, after ANOVA, FIG. 1G): 0.0307
p, Fisher's PLSD Saline vs. drug, FST Day 2 Immobility Time (sec) ([3]; 10 mg/kg, after RMANOVA, FIG. 1F): 0.0085
p, Fisher's PLSD Saline vs. drug, FST Day 2 Immobility Time Min 1 (s) [3, 10]: 0.3105
p, Fisher's PLSD Saline vs. drug, FST Day 2 Immobility Time Min 2 (s) [3, 10]: 0.2275
p, Fisher's PLSD Saline vs. drug, FST Day 2 Immobility Time Min 3 (s) [3, 10]: 0.0949
p, Fisher's PLSD Saline vs. drug, FST Day 2 Immobility Time Min 4 (s) [3, 10]: 0.1329
p, Fisher's PLSD Saline vs. drug, FST Day 2 Immobility Time Min 5 (s) [3, 10]: 0.4763
p, Fisher's PLSD Saline vs. drug, FST Day 2 Immobility Time Min 6 (s) [3, 10]: 0.4453
p, Fisher's PLSD Saline vs. drug, FST Day 2 Immobility Time (s) ([3]; 10 mg/kg, drug 5 minutes after stress, after ANOVA, FIG. 2G): 0.0204
p, Fisher's PLSD Saline vs. drug, FST Day 2 Immobility Time (sec) ([3]; 20 mg/kg, after ANOVA, FIG. 1G): <0.0001
p, Fisher's PLSD Saline vs. drug, FST Day 2 Immobility Time (sec) ([3]; 20 mg/kg, after RMANOVA, FIG. 1F): <0.0001
p, Fisher's PLSD Saline vs. drug, FST Day 2 Immobility Time (sec) ([3]; 30 mg/kg, after ANOVA, FIG. 1G): 0.0005
p, Fisher's PLSD Saline vs. drug, FST Day 2 Immobility Time (sec) ([3]; 30 mg/kg, after RMANOVA, FIG. 1F): 0.0003
p, Fisher's PLSD Saline vs. drug, FST Day 2 Immobility Time Min 1 (s) ([3]; 30 mg/kg, drug 5 minutes after stress, FIG. 2F): 0.9988
